# Data as given in US8071141B2, “Compositions for preventing or ameliorating multiple risk factor syndromes” (priority 2000, dated 2011).
# Structures can show the parent of a compound that is named as a salt. Where two headings read alike, the source gives them in different places.
# Assays:
# [1] = tested on: spontaneously hypertensive rats (SHR); test: Test Example 5: efficacy in spontaneously hypertensive rats; type: in vivo; conditions: licorice extract (Preparation Example 3) 300 mg/kg/day or enalapril maleate 20 mg/kg/day orally
# Procedure: As a positive control, enalapril maleate, an antihypertensive agent, was used.
# During the period, the mice had free access to food (CRF-1, Oriental Yeast Co.) and water.
# On the day immediately preceding the start of treatment and on day 7, day 14, and day 21 of treatment, the blood pressure was measured at the tail artery using a non-invasive automatic hemomanometer (BP-97A, Softron Co., Ltd.). The measurement of blood pressure was performed before each administration of the sample.
# KK-Ay mice [2] = test: Test Example 3: preventing effect on diabetes mellitus in type II diabetic model mice-2; type: in vivo; conditions: pioglitazone 0.04% or licorice extract (Preparation Example 2) 0.2% in food
# Excerpt: Regarding troglitazone, Noscal Tab.
# As a positive control, the antidiabetic agent pioglitazone was used. As pioglitazone, Actos Tab. […] For the determination of blood glucose, the simple blood glucose test Glutest Ace (Sanwa Kagaku Kenkyusho Co., Ltd.) was used.
# KK-Ay mice [3] = test: Test Example 9: efficacy of clove extract in type II diabetic model mice; type: in vivo; conditions: pioglitazone 0.02% or clove extract (Preparation Example 7) 0.5% in food
# Excerpt: (§1) As a positive control, the antidiabetic agent pioglitazone was used. […] As pioglitazone, Actos Tab.
# KK-Ay mice [4] = test: Test Example 4: ameliorating effect on diabetes mellitus in type II diabetic model mice; type: in vivo; conditions: pioglitazone 0.02% or licorice extract (Preparation Example 2) 0.2% in food
# Excerpt: As a positive control, the antidiabetic agent pioglitazone was used.
# The mice had free access to food for 7 days. […] For the determination of blood glucose, the simple blood glucose test Glutest Ace (Sanwa Kagaku Kenkyusho Co., Ltd.) was used.
# KK-Ay mice [5] = test: Test Example 7: efficacy of turmeric extract in type II diabetic model mice; type: in vivo; conditions: pioglitazone 0.04% or turmeric extract (Preparation Example 5) 0.5% in food
# Excerpt: as §1
# KK-Ay mice [6] = conditions: for Blood glucose: troglitazone 0.2% or licorice extract (Preparation Example 1) 0.15% in food
# Procedure: As a positive control, the antidiabetic agent troglitazone was used.
# Regarding troglitazone, Noscal Tab. 200 (200 mg of troglitazone in each tablet; Sankyo Co., Ltd.) was pulverized in an agate mortar and added to the normal food at a final concentration of 0.2%.
# During the feeding period, small samples of blood were taken weekly from the mouse tail vein and the blood glucose was determined with the simple blood glucose test Novo Assist Plus (Novo Nordisk Pharma Ltd.).
# At the end of the feeding period, the mice were fasted overnight and the abdomen was opened under ether anesthesia.
# The blood was withdrawn from the abdominal aorta and the liver was excised and weighed. In addition, Sogo Ikagaku Kenkyusho Co., Ltd. was entrusted with analyses for serum total cholesterol (T-CHO), triglyceride (TG), free fatty acid (NEFA), GOT, GPT, LAP, cholinesterase (ChoE), total protein (TP-S), albumin (ALB-S), and A/G ratio.
# [7] = end of 4-week feeding, overnight fast, troglitazone 0.2% or licorice extract 0.15% in food
smiles,measurement,setting,value
"CCOC(=O)[C@H](CCc1ccccc1)N[C@@H](C)C(=O)N1CCC[C@H]1C(=O)O [Enalapril maleate, enalapril maleate]",Blood pressure,"[1]; Before start, tail artery",111 ± 2.5 mmHg
same,Blood pressure,"[1]; Day 7, tail artery",118 ± 3.2 mmHg
same,Blood pressure,"[1]; Day 14, tail artery",119 ± 3.4 mmHg
same,Blood pressure,"[1]; Day 21, tail artery",134 ± 3.1 mmHg
"CCc1ccc(CCOc2ccc(CC3SC(=O)NC3=O)cc2)nc1 (stereo not shown) [Pioglitazone, pioglitazone]",Blood glucose,KK-Ay mice [2]; 1 week,163 ± 23 mg/dL
same,Blood glucose,KK-Ay mice [2]; 2 week,182 ± 9 mg/dL
same,Blood glucose,KK-Ay mice [2]; 3 week,167 ± 18 mg/dL
same,Blood glucose,KK-Ay mice [2]; 4 week,153 ± 21 mg/dL
same,Blood glucose,KK-Ay mice [2]; Start,151 ± 9 mg/dL
same,Blood glucose,KK-Ay mice [3]; 1 week,208 ± 21 mg/dL
same,Blood glucose,KK-Ay mice [3]; 2 week,192 ± 17 mg/dL
same,Blood glucose,KK-Ay mice [3]; 3 week,164 ± 16 mg/dL
same,Blood glucose,KK-Ay mice [3]; Start,156 ± 16 mg/dL
same,Blood glucose,KK-Ay mice [4]; Day 4,168 ± 49 mg/dL
same,Blood glucose,KK-Ay mice [4]; Day 7,143 ± 16 mg/dL
same,Blood glucose,"KK-Ay mice [4]; Start, hyperglycemic 15-week-old mice",378 ± 36 mg/dL
same,Blood glucose,KK-Ay mice [5]; 1 week,163 ± 23 mg/dL
same,Blood glucose,KK-Ay mice [5]; 2 week,182 ± 9 mg/dL
same,Blood glucose,KK-Ay mice [5]; 3 week,166 ± 18 mg/dL
same,Blood glucose,KK-Ay mice [5]; 4 week,153 ± 21 mg/dL
same,Blood glucose,KK-Ay mice [5]; Start,151 ± 9 mg/dL
"Cc1c(C)c2c(c(C)c1O)CCC(C)(COc1ccc(CC3SC(=O)NC3=O)cc1)O2 (stereo not shown) [Troglitazone, troglitazone]",Blood glucose,KK-Ay mice [6]; 1 week,217 ± 74 mg/dL
same,Blood glucose,KK-Ay mice [6]; 2 week,173 ± 40 mg/dL
same,Blood glucose,KK-Ay mice [6]; 3 week,304 ± 77 mg/dL
same,Blood glucose,KK-Ay mice [6]; 4 week,246 ± 51 mg/dL
same,Blood glucose,KK-Ay mice [6]; Start,145 ± 11 mg/dL
same,NEFA (serum free fatty acid),KK-Ay mice [6]; [7],1750 ± 302 μEq/L
same,T-CHO (serum total cholesterol),KK-Ay mice [6]; [7],163 ± 7 mg/dL
same,TG (serum triglyceride),KK-Ay mice [6]; [7],39 ± 14 mg/dL
same,A/G ratio,"KK-Ay mice [6]; mouse, in vivo",0.98 ± 0.05
same,ALB-S (albumin),"KK-Ay mice [6]; mouse, in vivo",2.50 ± 0.12 g/dL
same,GOT,"KK-Ay mice [6]; mouse, in vivo",121 ± 26 IU/L
same,GPT,"KK-Ay mice [6]; mouse, in vivo",70.5 ± 26.2 IU/L
same,LAP,"KK-Ay mice [6]; mouse, in vivo",60.8 ± 6.1 IU/L
same,TP-S (total protein),"KK-Ay mice [6]; mouse, in vivo",5.13 ± 0.17 g/dL
same,elevation in GOT compared with the non-treatment group,"KK-Ay mice [6]; mouse, in vivo",13%
same,ChoE (cholinesterase),"KK-Ay mice [6]; serum, end of 4-week feeding, troglitazone 0.2% or licorice extract 0.15% in food",153 ± 9 IU/L
